Tests used:
Format in all cases: in vivo
[1] = tested on: wild poinsettia (Euphorbia heterophylla); experiment: Test E pre-/postemergence greenhouse test, plant response rating 0-100; settings: scale 0 to 100; for Plant response rating, Poinsettia, Wild: Postemergence; for Poinsettia, Wild plant response rating: Preemergence
Procedure, shortened: (§1)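 Greenhouse pot assay, two application timings. Pre- to silt loam at planting; post- to 1–4-leaf plants. Visual 0–100 score at 14–21 d.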

[2] = tested on: hairy beggarticks (Bidens pilosa); experiment: as above; settings: scale 0 to 100; for Plant response rating, Beggarticks: Postemergence; for Beggarticks plant response rating: Preemergence
Procedure, shortened: as §1

[3] = tested on: Brazilian crabgrass (Digitaria horizontalis); experiment: as above; settings: Postemergence, scale 0 to 100
Procedure, shortened: as §1

[4] = tested on: Italian ryegrass (Lolium multiflorum); experiment: as above; settings: scale 0 to 100; for Plant response rating, Ryegrass, Italian: Postemergence; for Ryegrass, Italian plant response rating: Preemergence
Procedure, shortened: as §1

[5] = tested on: barnyardgrass (Echinochloa crus-galli); experiment: as above; settings: scale 0 to 100; for Plant response rating, Barnyardgrass: Postemergence; for Barnyardgrass plant response rating: Preemergence
Procedure, shortened: as §1

[6] = tested on: sandbur (southern sandbur, Cenchrus echinatus); experiment: as above; settings: scale 0 to 100; for Plant response rating, Sandbur: Postemergence; for Sandbur plant response rating: Preemergence
Procedure, shortened: as §1

[7] = tested on: palmer pigweed (Amaranthus palmeri); experiment: as above; settings: scale 0 to 100; for Plant response rating, Pigweed, Palmer: Postemergence; for Pigweed, Palmer plant response rating: Preemergence
Procedure, shortened: as §1

[8] = tested on: dayflower (Virginia (VA) dayflower, Commelina virginica); experiment: as above; settings: scale 0 to 100; for Plant response rating, Dayflower, VA: Postemergence; for Dayflower, VA plant response rating: Preemergence
Procedure, shortened: as §1

[9] = tested on: corn (Zea mays); experiment: as above; settings: scale 0 to 100; for Plant response rating, Corn: Postemergence; for Corn plant response rating: Preemergence
Procedure, shortened: as §1

[10] = tested on: fall panicum (Panicum dichotomiflorum); experiment: as above; settings: scale 0 to 100; for Plant response rating, Panicum, Fall: Postemergence; for Panicum, Fall plant response rating: Preemergence
Procedure, shortened: as §1

[11] = tested on: arrowleaf sida (Sida rhombifolia); experiment: as above; settings: for Plant response rating, Arrowleaf Sida: Postemergence; for Arrowleaf Sida plant response rating: Preemergence
Procedure, shortened: as §1

[12] = tested on: barnyardgrass (Echinochloa crus-galli); experiment: Test B flooded paddy test, plant response rating 0-100; settings: Flood, 250 g ai/ha; scale 0 to 100 (0 no effect, 100 complete control); 13 to 15 days
Procedure, shortened: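 Ratings were visual and made relative to untreated controls after 13 to 15 greenhouse days.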

[13] = 500 g ai/ha, scale 0 to 100 (0 no effect, 100 complete control)

## O=C(c1ccccc1)c1cn(S(=O)(=O)CCl)nc1-c1cc(Cl)cc(Cl)c1 [Compound 1]
[1]; 31 g ai/ha
  Plant response rating, Poinsettia, Wild: 0
  Poinsettia, Wild plant response rating: 0
[1]; 62 g ai/ha
  Plant response rating, Poinsettia, Wild: 0
  Poinsettia, Wild plant response rating: 0
[1]; 125 g ai/ha
  Plant response rating, Poinsettia, Wild: 0
  Poinsettia, Wild plant response rating: 0
[1]; 250 g ai/ha
  Plant response rating, Poinsettia, Wild: 0
[1]; 500 g ai/ha
  Plant response rating, Poinsettia, Wild: 0
  Poinsettia, Wild plant response rating: 0
[2]; 31 g ai/ha
  Plant response rating, Beggarticks: 30
  Beggarticks plant response rating: 0
[2]; 62 g ai/ha
  Plant response rating, Beggarticks: 95
  Beggarticks plant response rating: 0
[2]; 125 g ai/ha
  Plant response rating, Beggarticks: 98
  Beggarticks plant response rating: 0
[2]; 250 g ai/ha
  Plant response rating, Beggarticks: 98
  Beggarticks plant response rating: 35
[2]; 500 g ai/ha
  Plant response rating, Beggarticks: 98
  Beggarticks plant response rating: 35
[3]; 31 g ai/ha
  Plant response rating, Crabgrass, Brazil: 0
[3]; 62 g ai/ha
  Plant response rating, Crabgrass, Brazil: 0
[3]; 125 g ai/ha
  Plant response rating, Crabgrass, Brazil: 0
[3]; 250 g ai/ha
  Plant response rating, Crabgrass, Brazil: 0
[3]; 500 g ai/ha
  Plant response rating, Crabgrass, Brazil: 0
[4]; 31 g ai/ha
  Plant response rating, Ryegrass, Italian: 0
  Ryegrass, Italian plant response rating: 0
[4]; 62 g ai/ha
  Plant response rating, Ryegrass, Italian: 0
  Ryegrass, Italian plant response rating: 0
[4]; 125 g ai/ha
  Plant response rating, Ryegrass, Italian: 0
  Ryegrass, Italian plant response rating: 0
[4]; 250 g ai/ha
  Plant response rating, Ryegrass, Italian: 0
  Ryegrass, Italian plant response rating: 0
[4]; 500 g ai/ha
  Plant response rating, Ryegrass, Italian: 0
  Ryegrass, Italian plant response rating: 0
[5]; 31 g ai/ha
  Plant response rating, Barnyardgrass: 0
[5]; 62 g ai/ha
  Plant response rating, Barnyardgrass: 0
  Barnyardgrass plant response rating: 0
[5]; 125 g ai/ha
  Plant response rating, Barnyardgrass: 0
  Barnyardgrass plant response rating: 0
[5]; 250 g ai/ha
  Plant response rating, Barnyardgrass: 0
  Barnyardgrass plant response rating: 0
[5]; 500 g ai/ha
  Plant response rating, Barnyardgrass: 0
  Barnyardgrass plant response rating: 0
[6]; 31 g ai/ha
  Plant response rating, Sandbur: 0
  Sandbur plant response rating: 0
[6]; 62 g ai/ha
  Plant response rating, Sandbur: 0
  Sandbur plant response rating: 0
[6]; 125 g ai/ha
  Plant response rating, Sandbur: 0
  Sandbur plant response rating: 0
[6]; 250 g ai/ha
  Plant response rating, Sandbur: 0
  Sandbur plant response rating: 20
[6]; 500 g ai/ha
  Plant response rating, Sandbur: 0
  Sandbur plant response rating: 20
[7]; 31 g ai/ha
  Plant response rating, Pigweed, Palmer: 50
  Pigweed, Palmer plant response rating: 0
[7]; 62 g ai/ha
  Plant response rating, Pigweed, Palmer: 25
  Pigweed, Palmer plant response rating: 20
[7]; 125 g ai/ha
  Plant response rating, Pigweed, Palmer: 75
  Pigweed, Palmer plant response rating: 25
[7]; 250 g ai/ha
  Plant response rating, Pigweed, Palmer: 70
  Pigweed, Palmer plant response rating: 20
[7]; 500 g ai/ha
  Plant response rating, Pigweed, Palmer: 98
  Pigweed, Palmer plant response rating: 100
[8]; 31 g ai/ha
  Plant response rating, Dayflower, VA: 0
  Dayflower, VA plant response rating: 0
[8]; 62 g ai/ha
  Plant response rating, Dayflower, VA: 0
[8]; 125 g ai/ha
  Plant response rating, Dayflower, VA: 0
  Dayflower, VA plant response rating: 0
[8]; 250 g ai/ha
  Plant response rating, Dayflower, VA: 0
  Dayflower, VA plant response rating: 0
[8]; 500 g ai/ha
  Plant response rating, Dayflower, VA: 0
  Dayflower, VA plant response rating: 0
[9]; 31 g ai/ha
  Plant response rating, Corn: 0
  Corn plant response rating: 0
[9]; 62 g ai/ha
  Plant response rating, Corn: 0
  Corn plant response rating: 0
[9]; 125 g ai/ha
  Plant response rating, Corn: 0
  Corn plant response rating: 0
[9]; 250 g ai/ha
  Plant response rating, Corn: 0
  Corn plant response rating: 0
[9]; 500 g ai/ha
  Plant response rating, Corn: 0
  Corn plant response rating: 0
[10]; 31 g ai/ha
  Plant response rating, Panicum, Fall: 0
  Panicum, Fall plant response rating: 0
[10]; 62 g ai/ha
  Plant response rating, Panicum, Fall: 0
  Panicum, Fall plant response rating: 0
[10]; 125 g ai/ha
  Plant response rating, Panicum, Fall: 0
  Panicum, Fall plant response rating: 0
[10]; 250 g ai/ha
  Plant response rating, Panicum, Fall: 0
  Panicum, Fall plant response rating: 0
[10]; 500 g ai/ha
  Plant response rating, Panicum, Fall: 0
  Panicum, Fall plant response rating: 0
[11]; 31 g ai/ha, scale 0 to 100
  Plant response rating, Arrowleaf Sida: 80
  Arrowleaf Sida plant response rating: 20
[11]; 62 g ai/ha, scale 0 to 100
  Plant response rating, Arrowleaf Sida: 90
  Arrowleaf Sida plant response rating: 25
[11]; 125 g ai/ha, scale 0 to 100
  Plant response rating, Arrowleaf Sida: 95
  Arrowleaf Sida plant response rating: 25
[11]; 250 g ai/ha, scale 0 to 100
  Plant response rating, Arrowleaf Sida: 95
  Arrowleaf Sida plant response rating: 20
[11]; [13]
  Plant response rating, Arrowleaf Sida: 98
[11]; 500 g ai/ha, scale 0 to 100
  Arrowleaf Sida plant response rating: 75
[12]
  Plant response rating, Barnyardgrass: 0

## Fc1ccc(NN=C(c2ccccc2)c2c[nH]nc2-c2cc(Cl)cc(Cl)c2)cc1 [Compound 35]
[1]; 31 g ai/ha
  Plant response rating, Poinsettia, Wild: 0
[1]; 62 g ai/ha
  Plant response rating, Poinsettia, Wild: 0
[1]; 125 g ai/ha
  Plant response rating, Poinsettia, Wild: 0
[1]; 250 g ai/ha
  Plant response rating, Poinsettia, Wild: 0
[1]; 500 g ai/ha
  Plant response rating, Poinsettia, Wild: 0
[2]; 31 g ai/ha
  Plant response rating, Beggarticks: 85
[2]; 62 g ai/ha
  Plant response rating, Beggarticks: 98
[2]; 125 g ai/ha
  Plant response rating, Beggarticks: 98
[2]; 250 g ai/ha
  Plant response rating, Beggarticks: 98
[2]; 500 g ai/ha
  Plant response rating, Beggarticks: 100
[3]; 31 g ai/ha
  Plant response rating, Crabgrass, Brazil: 0
[3]; 62 g ai/ha
  Plant response rating, Crabgrass, Brazil: 0
[3]; 125 g ai/ha
  Plant response rating, Crabgrass, Brazil: 0
[3]; 250 g ai/ha
  Plant response rating, Crabgrass, Brazil: 0
[3]; 500 g ai/ha
  Plant response rating, Crabgrass, Brazil: 10
[4]; 31 g ai/ha
  Plant response rating, Ryegrass, Italian: 0
[4]; 62 g ai/ha
  Plant response rating, Ryegrass, Italian: 0
[4]; 125 g ai/ha
  Plant response rating, Ryegrass, Italian: 0
[4]; 250 g ai/ha
  Plant response rating, Ryegrass, Italian: 0
[4]; 500 g ai/ha
  Plant response rating, Ryegrass, Italian: 0
[5]; 31 g ai/ha
  Plant response rating, Barnyardgrass: 0
[5]; 62 g ai/ha
  Plant response rating, Barnyardgrass: 0
[5]; 125 g ai/ha
  Plant response rating, Barnyardgrass: 0
[5]; 250 g ai/ha
  Plant response rating, Barnyardgrass: 0
[5]; 500 g ai/ha
  Plant response rating, Barnyardgrass: 0
[6]; 31 g ai/ha
  Plant response rating, Sandbur: 0
[6]; 62 g ai/ha
  Plant response rating, Sandbur: 0
[6]; 125 g ai/ha
  Plant response rating, Sandbur: 0
[6]; 250 g ai/ha
  Plant response rating, Sandbur: 0
[6]; 500 g ai/ha
  Plant response rating, Sandbur: 0
[7]; 31 g ai/ha
  Plant response rating, Pigweed, Palmer: 75
[7]; 62 g ai/ha
  Plant response rating, Pigweed, Palmer: 80
[7]; 125 g ai/ha
  Plant response rating, Pigweed, Palmer: 98
[7]; 250 g ai/ha
  Plant response rating, Pigweed, Palmer: 100
[7]; 500 g ai/ha
  Plant response rating, Pigweed, Palmer: 100
[8]; 31 g ai/ha
  Plant response rating, Dayflower, VA: 0
[8]; 62 g ai/ha
  Plant response rating, Dayflower, VA: 0
[8]; 125 g ai/ha
  Plant response rating, Dayflower, VA: 0
[8]; 250 g ai/ha
  Plant response rating, Dayflower, VA: 0
[8]; 500 g ai/ha
  Plant response rating, Dayflower, VA: 0
[9]; 31 g ai/ha
  Plant response rating, Corn: 0
[9]; 62 g ai/ha
  Plant response rating, Corn: 0
[9]; 125 g ai/ha
  Plant response rating, Corn: 0
[9]; 250 g ai/ha
  Plant response rating, Corn: 0
[9]; 500 g ai/ha
  Plant response rating, Corn: 0
[11]; 31 g ai/ha, scale 0 to 100
  Plant response rating, Arrowleaf Sida: 50
[11]; 62 g ai/ha, scale 0 to 100
  Plant response rating, Arrowleaf Sida: 60
[11]; 125 g ai/ha, scale 0 to 100
  Plant response rating, Arrowleaf Sida: 70
[11]; 250 g ai/ha, scale 0 to 100
  Plant response rating, Arrowleaf Sida: 80
[11]; [13]
  Plant response rating, Arrowleaf Sida: 90
[12]
  Plant response rating, Barnyardgrass: 0

From patent US10167262B2, “Herbicidal substituted 3-arylpyrazoles” (FMC CORPORATION, priority 2014, dated 2019)
